Literature values, collected in US9060510B2 (priority 2005, dated 2015).
Read-outs that look alike come from different tables or passages of the source.

For “(E)-1-(2-chloro-1,3-thiazol-5-yl)-3-methyl-2-nitroguanidine [Clothianidin]”, the water-solubility (at pH 4.0, 20° C.) is listed as 0.304 g/L.

In the case of CCN(Cc1ccc(Cl)nc1)/C(=C/[N+](=O)[O-])NC [Nitempyram, (E)-N-(6-chloro-3-pyridylmethyl)-N-ethyl-N′-methyl-2-nitrovinylidenediamine], the water-solubility (at pH 7.0, 20° C.) is given as > 590 g/L.
